Data taken from patent publication US20090221647A1, “N-(2-THIAZOLYL)-AMIDE DERIVATIVES AS GSK-3 INHIBITORS” (NOSCIRA, S.A., priority 2006, published 2009).

What was measured:
[1] = molecular target: T1, Recombinant human glycogen synthase kinase 3β (Homo sapiens, UniProt P49841); assay: GSK-3β inhibition (radiometric 33P-ATP, GS-2 peptide substrate); format: biochemical; details: remaining GSK-3 activity
T1 construct: purchased Upstate 14-306
Method: This assay is based on the protocol detailed by Upstate Cat. 14-306, making some slight modifications.
Recombinant human glycogen synthase kinase 3β is assayed in MOPS 11 mM pH7.4, EDTA 0.2 mM, EGTA 1.25 mM, MgCl2 26.25 mM and sodium orthovanadate 0.25 mM in the presence of 62.5 μM of Phospho-Glycogen Synthase Peptide-2 (GS-2) (TOCRIS, Cat. 1352), 0.5 μCi γ-^33P-ATP and unlabelled ATP (Sigma, A-9187) at a final concentration of 12.5 μM. After incubation for 30 minutes at 30° C., aliquots are spotted onto P81 phosphocellulose papers. Filters are washed four times for at least 10 minutes each with 1% phosphoric acid and counted with scintillation cocktail in a scintillation counter (PerkinElmer, Microbeta 1450). The activity of GSK-3 is tested at concentrations of 25 and 50 μM, in the presence of the compound synthesized according to example 1 and in the presence of another 6 compounds of formula (I). The results obtained are indicated in Table I (see below), in the form of percentage of GSK-3 activity.

[2] = test system: phosphorylated human Tau [pS396] in SHSY5Y cells; assay: Inhibition of tau phosphorylation in SHSY5Y cells (Tau [pS396] sandwich ELISA); format: cell-based; set-up: key: “NEG” means no tau phosphorylation inhibition was detected at the referred concentration of compound (I); “POS” means that at the referred concentration tau phosphorylation inhibition was detected; details: 18 h
Method: Human neuroblastoma SHSY5Y cells were seeded in the presence of Minimum Essential Medium/Nutrient Mixture F-12. One day later, cells are treated with samples for 18 h at 37° C. After treatment, cultures are washed with phosphate-buffered saline and lysed for 30 min at 4° C. in extraction buffer (10 mM Tris-HCl, pH 7.4, 100 mM NaCl, 1 mM EDTA, 2 mM Na3VO4, 1% Triton X-100, 10% glycerol, 0.1% SDS, 0.5% Sodium deoxycholate, 1 mM PMSF and a protease inhibitor cocktail (Roche, Cat 1 697 498)).
The quantitative determination of phosphorylated human Tau is made taking aliquots of the cell lysate and using a phosphorylation-specific antibody against Tau [pS396] in a sandwich ELISA (Biosource, Cat KHB7031). Tau phosphorylation is estimated by measuring the absorbance at 450 nm in a microtiter plate reader (Cultek, Anthos 2010).
The effect of the synthesized compound according to example 1 and that of another 6 compounds of formula (I) is determined at different final concentrations, namely 50, 100 and 200 μM. Not all the compounds of formula (I) were tested at all the concentrations. The results are indicated in Table 1 (see below) as “NEG” and “POS”, respectively meaning “negative” and “positive”; “NEG” means no tau phosphorylation inhibition was detected at the referred concentration of compound (I); “POS” means that at the referred concentration tau phosphorylation inhibition was detected.

SH-SY5Y cells = assay: Cell survival by LDH release in SH-SY5Y cells; format: cell-based
Method: In addition to tau phosphorylation assays, quantification of cell death due to potential toxicity of compounds 1 and 3 described above is made by measuring LDH release (Roche, Cat 1 644 793). For the quantitative determination of cell survival, aliquots of the cell lysate are incubated with an equal volume of reaction mixture at room temperature for 20-30 min. The measure of absorbance is made in a microtiter plate reader with 490-492 nm filter (Cultek, Anthos 2010).
For compounds 1 and 3, the cell survival was measured at 24 hours treatment (see Table 2), and for compound 2 was measured at 18 hours treatment (see Table 3), in SH-SY5Y cells. It is generally considered that a compound is considered toxic if less than 80% of the cells survive after treatment with a compound.

T1 sequence (P49841 whole entry): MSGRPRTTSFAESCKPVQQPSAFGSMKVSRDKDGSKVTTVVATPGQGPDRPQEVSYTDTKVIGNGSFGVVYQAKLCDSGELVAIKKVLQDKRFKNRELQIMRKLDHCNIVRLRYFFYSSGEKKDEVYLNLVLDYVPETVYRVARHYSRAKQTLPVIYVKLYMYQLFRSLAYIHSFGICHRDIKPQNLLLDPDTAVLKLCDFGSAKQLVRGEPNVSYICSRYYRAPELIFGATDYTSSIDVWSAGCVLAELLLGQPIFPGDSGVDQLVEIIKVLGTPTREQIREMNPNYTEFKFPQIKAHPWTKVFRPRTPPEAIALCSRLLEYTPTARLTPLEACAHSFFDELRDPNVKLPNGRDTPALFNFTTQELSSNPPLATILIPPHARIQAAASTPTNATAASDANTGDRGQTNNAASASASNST

Compound	% GSK-3 Activity ([1]; 25 μM compound) [%]	% GSK-3 Activity ([1]; 50 μM compound) [%]	Tau phosphorylation inhibition in cells ([2]; 50 μM compound)	Tau phosphorylation inhibition in cells ([2]; 100 μM compound)	% of cell viability (SH-SY5Y cells; 50 μM, 24 hours treatment) [%]	% of cell viability (SH-SY5Y cells; 100 μM, 24 hours treatment) [%]	% of cell viability (SH-SY5Y cells; 50 μM, 18 hours treatment) [%]	% of cell viability (SH-SY5Y cells; 100 μM, 18 hours treatment) [%]
O=C(Cc1ccccn1)Nc1ncc([N+](=O)[O-])s1 [Compound 3]	9.49	4.1	NEG	POS	87 ± 6.0	85.4 ± 2.7		
O=C(Nc1ncc([N+](=O)[O-])s1)c1ccccn1 [Compound 5]	76.72	43.78						
O=C(Cc1ccccc1)Nc1ncc([N+](=O)[O-])s1 [Compound 7]	13.73	8.05	POS	POS				
O=C(CCc1cccnc1)Nc1ncc([N+](=O)[O-])s1 [Compound 2]	8.3	5.36	POS	POS			95.7 ± 4.2	93.7 ± 7.1
O=C(Cc1cccnc1)Nc1ncc(Cl)s1 [Compound 4]	5.6	13.8	NEG	POS				
O=C(Cc1cccnc1)Nc1ncc([N+](=O)[O-])s1 [Compound 1, N-(5-Nitro-thiazol-2-yl)-2-pyridin-3-yl-acetamide]	5.21	2.78	POS	POS	94.1 ± 1.8	86.5 ± 4.7		
O=C(Cc1cccnc1)Nc1nccs1 [Compound 6]	22.29	50.90						
